Reference: US20260335468A1, “MOLECULAR RADIOAFTERGLOW PROBES FOR CANCER RADIODYNAMIC THERANOSTICS” (NANYANG TECHNOLOGICAL UNIVERSITY, priority 2023, published 2026)

Legend:
[1] = Radio afterglow spectra, intensity and half-life of luminophores in PBS after X-ray; type: physicochemical; details: for radio afterglow intensity increase versus iodine-free counterpart: 100 μM, PBS pH 7.4, 50% DMSO, X-ray 5 mGy; for radio afterglow brightness / intensity: X-ray irradiation
Method: The optical properties of DPAs and IDPAs were investigated in an aqueous solution (FIGS. 2 and 3). […] Their half-lives ranged from 9.2 to 196.8 min (FIG. 4e).
DPAs or IDPAs (100 μM) in 0.01 M PBS (pH 7.4, 50% DMSO) were irradiated by X-rays at 250 μGy s^−1 for 20 s (total, 5 mGy) under the specific setup parameter of 10 kV and 75 μA. Then, the radio afterglow signal was collected with an IVIS imaging system under the bioluminescence mode with an open filter and an acquisition time of 60 s. Finally, the radio afterglow intensities were quantified by a region-of-interest analysis using Living Image 4.3 software. In addition, the radio afterglow spectra of the candidates were acquired under the same test conditions with specific emission filters, and time courses of the signal were recorded as a function of time.

[2] = ^1O2 generation upon X-ray irradiation (ESR, TEMP trap); type: physicochemical; details: for ^1O2 generation / radiodynamic activity: X-ray irradiation, ESR
Method: To study ^1O2 generation, a mixture of DPAS or IDPAS (100 M) and TEMP (10 mM) in PBS (0.01 M, pH 7.4, 50% DMSO) was irradiated by X-rays at 2 Gy (100 mGy s^−1 for 20 s) or 5 mGy (250 μGy s^−1 for 20 s). The ESR signals of the mixture were recorded with a Bruker A300 instrument. The ESR signal of the free radical 2,2,6,6-tetramethyl-1-piperidinyloxyl (g=2.0060) was generated by the reaction of ^1O2 with TEMP. The ^1O2 quencher NaN3 (1 mM) was added to validate the afterglow mechanism of IDPASu. Additionally, other commercially available radio sensitizers (such as acridine orange, hematoporphyrin and verteporfin) were measured and compared. The procedure of block depths was similar to that of the tissue penetration depth study and the ^1O2 generation for different depth tissues was measured. The ESR signal changes of MRAP in the absence or presence of CatB were measured in a similar way. The ESR signals of 2,2,6,6-tetramethyl-1-piperidinyloxyl from the reaction of ^1O2 with TEMP were plotted as a function of the concentration of ^1O2, which was generated by the addition of NaOCl to H2O2. This generated the standard curve between the ESR intensity and ^1O2 concentration.

| Compound | radio afterglow intensity increase versus iodine-free counterpart [1] | ^1O2 generation / radiodynamic activity [2] | radio afterglow brightness / intensity [1] | ^1O2 generation versus that of IDPAs ([2]; X-ray 5 mGy) |
| --- | --- | --- | --- | --- |
| COC(=C1C2CC3CC(C2)CC1C3)c1cc(O)c(I)cc1/C=C/C1=CC(=C(C#N)C#N)c2ccccc2O1 [IDPAO] | ~ 1.62 fold |  |  |  |
| COC(=C1C2CC3CC(C2)CC1C3)c1cc(O)ccc1/C=C/C1=CC(=C(C#N)C#N)c2ccccc2S1 [DPASu, DBTP-phenoxy-adamantylidene] |  | generation of ^1O2 |  |  |
| COC(=C1C2CC3CC(C2)CC1C3)c1cc(O)c(I)cc1/C=C/C1=CC(=C(C#N)C#N)c2ccccc2[Se]1 [IDPASe] | 6.65 fold |  |  |  |
| COC(=C1C2CC3CC(C2)CC1C3)c1c(/C=C/C2=CC(=C(C#N)C#N)c3ccccc3S2)cc(I)c(O)c1I [DIDPAS] |  | slightly increase | extremely low | ~ 1.2 fold |
| COC(=C1C2CC3CC(C2)CC1C3)c1c(/C=C/C2=CC(=C(C#N)C#N)c3ccccc3O2)cc(I)c(O)c1I [DIDPAO] |  | slightly increase | extremely low |  |
